Tests used:
Assay in all cases: Test E pre-/postemergence plant response
Format in all cases: in vivo
[1] = system: southern (S.) sandbur (Cenchrus echinatus); settings: scale 0 to 100
Method in brief: (§1)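 Plants scored visually versus controls on a 0–100 scale (100 = complete control) 14 to 21 days after treatment in the greenhouse. Test chemicals in a surfactant-containing non-phytotoxic solvent were applied to soil preemergence or to 1- to 4-leaf plants, 2–18 cm tall.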

[2] = system: purple nutsedge (Cyperus rotundus); settings: scale 0 to 100
Method in brief: as §1

[3] = system: guineagrass (Panicum maximum); settings: scale 0 to 100
Method in brief: as §1

[4] = system: common purslane (Portulaca oleracea); settings: scale 0 to 100
Method in brief: as §1

[5] = system: pitted morningglory (Ipomoea lacunosa); settings: scale 0 to 100
Method in brief: as §1

[6] = system: quackgrass (Elytrigia repens); settings: scale 0 to 100
Method in brief: as §1

[7] = system: surinam grass (Brachiaria decumbens); settings: scale 0 to 100
Method in brief: as §1

[8] = system: common groundsel (Senecio vulgaris); settings: Postemergence, scale 0 to 100
Method in brief: as §1

[9] = system: Italian ryegrass (Lolium multiflorum); settings: scale 0 to 100
Method in brief: as §1

[10] = system: large crabgrass (Digitaria sanguinalis); settings: scale 0 to 100
Method in brief: as §1

[11] = system: black mustard (Brassica nigra); settings: scale 0 to 100
Method in brief: as §1

[12] = system: goosegrass (Eleusine indica); settings: scale 0 to 100
Method in brief: as §1

COC(=O)Oc1cnn(C)c(=O)c1-n1nc(-c2ccc(Cl)cc2)cc1C [Compound 33]
40: Plant response rating, Crabgrass, Large ([10]; 8 g ai/ha, Preemergence)
95: Plant response rating, Guineagrass ([3]; Postemergence, 62 g ai/ha) | Plant response rating, Ryegrass, Italian ([9]; Postemergence, 62 g ai/ha) | Plant response rating, Crabgrass, Large ([10]; Postemergence, 62 g ai/ha)
100: Plant response rating, Sandbur, S. ([1]; 62 g ai/ha, Preemergence) | Plant response rating, Guineagrass ([3]; 16 g ai/ha, Preemergence) | Plant response rating, Guineagrass ([3]; 31 g ai/ha, Preemergence) | Plant response rating, Guineagrass ([3]; 62 g ai/ha, Preemergence) | Plant response rating, Surinam Grass ([7]; 62 g ai/ha, Preemergence) | Plant response rating, Surinam Grass ([7]; Postemergence, 31 g ai/ha) | Plant response rating, Surinam Grass ([7]; Postemergence, 62 g ai/ha) | Plant response rating, Ryegrass, Italian ([9]; 31 g ai/ha, Preemergence) | Plant response rating, Ryegrass, Italian ([9]; 62 g ai/ha, Preemergence) | Plant response rating, Crabgrass, Large ([10]; 31 g ai/ha, Preemergence) | Plant response rating, Crabgrass, Large ([10]; 62 g ai/ha, Preemergence) | Plant response rating, Goosegrass ([12]; 62 g ai/ha, Preemergence)
75: Plant response rating, Sandbur, S. ([1]; Postemergence, 16 g ai/ha) | Plant response rating, Surinam Grass ([7]; Postemergence, 8 g ai/ha) | Plant response rating, Surinam Grass ([7]; Postemergence, 16 g ai/ha) | Plant response rating, Ryegrass, Italian ([9]; Postemergence, 16 g ai/ha) | Plant response rating, Crabgrass, Large ([10]; 16 g ai/ha, Preemergence) | Plant response rating, Crabgrass, Large ([10]; Postemergence, 16 g ai/ha) | Plant response rating, Goosegrass ([12]; 8 g ai/ha, Preemergence) | Plant response rating, Goosegrass ([12]; Postemergence, 31 g ai/ha) | Plant response rating, Goosegrass ([12]; Postemergence, 62 g ai/ha)
80: Plant response rating, Sandbur, S. ([1]; Postemergence, 31 g ai/ha) | Plant response rating, Guineagrass ([3]; Postemergence, 8 g ai/ha) | Plant response rating, Guineagrass ([3]; Postemergence, 16 g ai/ha)
35: Plant response rating, Ryegrass, Italian ([9]; Postemergence, 8 g ai/ha) | Plant response rating, Goosegrass ([12]; Postemergence, 8 g ai/ha) | Plant response rating, Goosegrass ([12]; Postemergence, 16 g ai/ha)
98: Plant response rating, Surinam Grass ([7]; 16 g ai/ha, Preemergence) | Plant response rating, Surinam Grass ([7]; 31 g ai/ha, Preemergence) | Plant response rating, Ryegrass, Italian ([9]; 16 g ai/ha, Preemergence) | Plant response rating, Goosegrass ([12]; 16 g ai/ha, Preemergence) | Plant response rating, Goosegrass ([12]; 31 g ai/ha, Preemergence)
90: Plant response rating, Sandbur, S. ([1]; 16 g ai/ha, Preemergence) | Plant response rating, Sandbur, S. ([1]; 31 g ai/ha, Preemergence) | Plant response rating, Sandbur, S. ([1]; Postemergence, 62 g ai/ha) | Plant response rating, Guineagrass ([3]; Postemergence, 31 g ai/ha) | Plant response rating, Ryegrass, Italian ([9]; Postemergence, 31 g ai/ha) | Plant response rating, Crabgrass, Large ([10]; Postemergence, 31 g ai/ha)
0: Plant response rating, Nutsedge, Purple ([2]; 16 g ai/ha, Preemergence) | Plant response rating, Nutsedge, Purple ([2]; 31 g ai/ha, Preemergence) | Plant response rating, Nutsedge, Purple ([2]; 62 g ai/ha, Preemergence) | Plant response rating, Nutsedge, Purple ([2]; Postemergence, 8 g ai/ha) | Plant response rating, Nutsedge, Purple ([2]; Postemergence, 16 g ai/ha) | Plant response rating, Nutsedge, Purple ([2]; Postemergence, 31 g ai/ha) | Plant response rating, Nutsedge, Purple ([2]; Postemergence, 62 g ai/ha) | Plant response rating, Purslane ([4]; 16 g ai/ha, Preemergence) | Plant response rating, Purslane ([4]; 31 g ai/ha, Preemergence) | Plant response rating, Purslane ([4]; 62 g ai/ha, Preemergence) | Plant response rating, Purslane ([4]; Postemergence, 8 g ai/ha) | Plant response rating, Purslane ([4]; Postemergence, 16 g ai/ha) | Plant response rating, Purslane ([4]; Postemergence, 31 g ai/ha) | Plant response rating, Purslane ([4]; Postemergence, 62 g ai/ha) | Plant response rating, Morningglory ([5]; 16 g ai/ha, Preemergence) | Plant response rating, Morningglory ([5]; 31 g ai/ha, Preemergence) | Plant response rating, Morningglory ([5]; 62 g ai/ha, Preemergence) | Plant response rating, Morningglory ([5]; Postemergence, 8 g ai/ha) | Plant response rating, Morningglory ([5]; Postemergence, 16 g ai/ha) | Plant response rating, Morningglory ([5]; Postemergence, 31 g ai/ha) | Plant response rating, Morningglory ([5]; Postemergence, 62 g ai/ha) | Plant response rating, Quackgrass ([6]; Postemergence, 8 g ai/ha) | Plant response rating, Groundsel ([8]; 8 g ai/ha) | Plant response rating, Groundsel ([8]; 16 g ai/ha) | Plant response rating, Groundsel ([8]; 31 g ai/ha) | Plant response rating, Groundsel ([8]; 62 g ai/ha) | Plant response rating, Mustard, Black ([11]; 8 g ai/ha, Preemergence) | Plant response rating, Mustard, Black ([11]; 16 g ai/ha, Preemergence) | Plant response rating, Mustard, Black ([11]; 31 g ai/ha, Preemergence) | Plant response rating, Mustard, Black ([11]; 62 g ai/ha, Preemergence) | Plant response rating, Mustard, Black ([11]; Postemergence, 8 g ai/ha) | Plant response rating, Mustard, Black ([11]; Postemergence, 16 g ai/ha) | Plant response rating, Mustard, Black ([11]; Postemergence, 31 g ai/ha) | Plant response rating, Mustard, Black ([11]; Postemergence, 62 g ai/ha)
60: Plant response rating, Quackgrass ([6]; 62 g ai/ha, Preemergence) | Plant response rating, Quackgrass ([6]; Postemergence, 31 g ai/ha)
70: Plant response rating, Quackgrass ([6]; Postemergence, 62 g ai/ha) | Plant response rating, Crabgrass, Large ([10]; Postemergence, 8 g ai/ha)
30: Plant response rating, Quackgrass ([6]; Postemergence, 16 g ai/ha)
20: Plant response rating, Quackgrass ([6]; 16 g ai/ha, Preemergence) | Plant response rating, Quackgrass ([6]; 31 g ai/ha, Preemergence)
65: Plant response rating, Sandbur, S. ([1]; Postemergence, 8 g ai/ha)

CCc1cc(-c2ccc(Cl)cc2)nn1-c1c(OS(C)(=O)=O)cnn(C)c1=O [Compound 39]
100: Plant response rating, Sandbur, S. ([1]; 31 g ai/ha, Preemergence) | Plant response rating, Sandbur, S. ([1]; 62 g ai/ha, Preemergence) | Plant response rating, Sandbur, S. ([1]; Postemergence, 62 g ai/ha) | Plant response rating, Guineagrass ([3]; 16 g ai/ha, Preemergence) | Plant response rating, Guineagrass ([3]; 31 g ai/ha, Preemergence) | Plant response rating, Guineagrass ([3]; 62 g ai/ha, Preemergence) | Plant response rating, Quackgrass ([6]; 62 g ai/ha, Preemergence) | Plant response rating, Surinam Grass ([7]; 16 g ai/ha, Preemergence) | Plant response rating, Surinam Grass ([7]; 31 g ai/ha, Preemergence) | Plant response rating, Surinam Grass ([7]; 62 g ai/ha, Preemergence) | Plant response rating, Surinam Grass ([7]; Postemergence, 16 g ai/ha) | Plant response rating, Surinam Grass ([7]; Postemergence, 31 g ai/ha) | Plant response rating, Surinam Grass ([7]; Postemergence, 62 g ai/ha) | Plant response rating, Ryegrass, Italian ([9]; 16 g ai/ha, Preemergence) | Plant response rating, Ryegrass, Italian ([9]; 31 g ai/ha, Preemergence) | Plant response rating, Ryegrass, Italian ([9]; Postemergence, 62 g ai/ha) | Plant response rating, Crabgrass, Large ([10]; 62 g ai/ha, Preemergence) | Plant response rating, Goosegrass ([12]; 31 g ai/ha, Preemergence) | Plant response rating, Goosegrass ([12]; 62 g ai/ha, Preemergence)
60: Plant response rating, Quackgrass ([6]; 16 g ai/ha, Preemergence) | Plant response rating, Quackgrass ([6]; Postemergence, 31 g ai/ha) | Plant response rating, Quackgrass ([6]; Postemergence, 62 g ai/ha) | Plant response rating, Crabgrass, Large ([10]; 16 g ai/ha, Preemergence)
65: Plant response rating, Crabgrass, Large ([10]; Postemergence, 8 g ai/ha)
98: Plant response rating, Ryegrass, Italian ([9]; Postemergence, 16 g ai/ha) | Plant response rating, Ryegrass, Italian ([9]; Postemergence, 31 g ai/ha) | Plant response rating, Crabgrass, Large ([10]; 31 g ai/ha, Preemergence) | Plant response rating, Crabgrass, Large ([10]; Postemergence, 62 g ai/ha)
95: Plant response rating, Sandbur, S. ([1]; Postemergence, 31 g ai/ha) | Plant response rating, Guineagrass ([3]; Postemergence, 62 g ai/ha) | Plant response rating, Quackgrass ([6]; 31 g ai/ha, Preemergence) | Plant response rating, Surinam Grass ([7]; Postemergence, 8 g ai/ha) | Plant response rating, Crabgrass, Large ([10]; Postemergence, 31 g ai/ha) | Plant response rating, Goosegrass ([12]; Postemergence, 62 g ai/ha)
90: Plant response rating, Sandbur, S. ([1]; 16 g ai/ha, Preemergence) | Plant response rating, Guineagrass ([3]; Postemergence, 31 g ai/ha) | Plant response rating, Crabgrass, Large ([10]; Postemergence, 16 g ai/ha)
0: Plant response rating, Nutsedge, Purple ([2]; 16 g ai/ha, Preemergence) | Plant response rating, Nutsedge, Purple ([2]; 31 g ai/ha, Preemergence) | Plant response rating, Nutsedge, Purple ([2]; Postemergence, 8 g ai/ha) | Plant response rating, Nutsedge, Purple ([2]; Postemergence, 16 g ai/ha) | Plant response rating, Nutsedge, Purple ([2]; Postemergence, 31 g ai/ha) | Plant response rating, Nutsedge, Purple ([2]; Postemergence, 62 g ai/ha) | Plant response rating, Purslane ([4]; 16 g ai/ha, Preemergence) | Plant response rating, Purslane ([4]; 31 g ai/ha, Preemergence) | Plant response rating, Purslane ([4]; 62 g ai/ha, Preemergence) | Plant response rating, Purslane ([4]; Postemergence, 8 g ai/ha) | Plant response rating, Purslane ([4]; Postemergence, 16 g ai/ha) | Plant response rating, Purslane ([4]; Postemergence, 31 g ai/ha) | Plant response rating, Purslane ([4]; Postemergence, 62 g ai/ha) | Plant response rating, Morningglory ([5]; 16 g ai/ha, Preemergence) | Plant response rating, Morningglory ([5]; 31 g ai/ha, Preemergence) | Plant response rating, Morningglory ([5]; 62 g ai/ha, Preemergence) | Plant response rating, Morningglory ([5]; Postemergence, 8 g ai/ha) | Plant response rating, Morningglory ([5]; Postemergence, 16 g ai/ha) | Plant response rating, Morningglory ([5]; Postemergence, 31 g ai/ha) | Plant response rating, Morningglory ([5]; Postemergence, 62 g ai/ha) | Plant response rating, Quackgrass ([6]; Postemergence, 8 g ai/ha) | Plant response rating, Groundsel ([8]; 31 g ai/ha) | Plant response rating, Groundsel ([8]; 62 g ai/ha) | Plant response rating, Mustard, Black ([11]; 8 g ai/ha, Preemergence) | Plant response rating, Mustard, Black ([11]; 16 g ai/ha, Preemergence) | Plant response rating, Mustard, Black ([11]; 31 g ai/ha, Preemergence) | Plant response rating, Mustard, Black ([11]; 62 g ai/ha, Preemergence) | Plant response rating, Mustard, Black ([11]; Postemergence, 8 g ai/ha) | Plant response rating, Mustard, Black ([11]; Postemergence, 16 g ai/ha) | Plant response rating, Mustard, Black ([11]; Postemergence, 31 g ai/ha) | Plant response rating, Mustard, Black ([11]; Postemergence, 62 g ai/ha)
80: Plant response rating, Guineagrass ([3]; Postemergence, 8 g ai/ha) | Plant response rating, Guineagrass ([3]; Postemergence, 16 g ai/ha) | Plant response rating, Goosegrass ([12]; 16 g ai/ha, Preemergence) | Plant response rating, Goosegrass ([12]; Postemergence, 31 g ai/ha)
75: Plant response rating, Sandbur, S. ([1]; Postemergence, 8 g ai/ha) | Plant response rating, Ryegrass, Italian ([9]; Postemergence, 8 g ai/ha) | Plant response rating, Goosegrass ([12]; 8 g ai/ha, Preemergence)
35: Plant response rating, Goosegrass ([12]; Postemergence, 8 g ai/ha)
85: Plant response rating, Sandbur, S. ([1]; Postemergence, 16 g ai/ha)
30: Plant response rating, Quackgrass ([6]; Postemergence, 16 g ai/ha) | Plant response rating, Crabgrass, Large ([10]; 8 g ai/ha, Preemergence)
70: Plant response rating, Goosegrass ([12]; Postemergence, 16 g ai/ha)
